Measured values from US20230041197A1, “TREATMENT OF A DISEASE OF THE GASTROINTESTINAL TRACT WITH AN IMMUNOMODULATOR” (Progenity, Inc., priority 2018, published 2023).
Where a name gives a salt, the structure may show the parent alone.

Legend:
[1] = Tacrolimus in GI tissue, luminal content and rectal content, oral vs intra-cecal device (Example 10); format: in vivo, Yorkshire-Cross farm swine
Procedure: Animals in Group 1 (Vehicle Control) were administered a single intra-cecal ingestible device containing 0.8 mL Vehicle solution (80% alcohol, 20% castor oil (HCO-60) on Day 1. On Day −10 the animals were anesthetized, and a veterinary surgeon surgically placed an intra-cecal port in each animal. On Day 1, each animal was placed into a sling then a single intra-cecal ingestible device containing 0.8 mL vehicle solution (80% alcohol, 20% castor oil (HCO-60)) is introduced by the veterinary surgeon into the cecum via the cecal port in each animal. Following ingestible device placement, the animals were removed from the slings and placed back into their pens with water. […]
Approximately 200-400 mg of rectal content were collected, if available, with a fecal swab (Copan Diagnostics Nylon Flocked Dry Swabs, 502CS01). The fecal swab was pre-weighed and weighed after collection in the collection tube (Sterile Tube and Cap No Media, PFPM913S), and the sample weight was recorded. […]
For tissue necropsy, small intestine fluid and cecal fluid were collected separately from all the animals into two separate square plastic bottles, and stored at −20° C. The length and diameter of the cecum and the colon was measured from one animal in each group and recorded for reference. […] All samples were weighed, and the tissue sample weights were recorded. […]

[2] = design: species or system Yorkshire-Cross farm swine; conditions: in vivo
Source text: Tables 32 and 33 provide the tissue and plasma ratios of the animals in Groups 2-5.

[3] = Tacrolimus blood pharmacokinetics, oral vs intra-cecal ingestible device (Example 10); format: in vivo, Yorkshire-Cross farm swine
Procedure: The primary objective of this study was to compare the tissue, plasma, rectal sample, and GI content pharmacokinetics of tacrolimus through oral versus intra-cecal ingestible device delivery in normal Yorkshire-Cross farm swine.
No further randomization procedure was employed.
Animals in Group 1 received an ingestible device containing 0.8 mL of vehicle solution (80% alcohol, 20% HCO-60). Animals in Group 2 received orally […] liquid formulation of tacrolimus at 4 mg/0.8 mL per animal (Prograf: 5 mg/mL). Animals in Group 3 received intra-cecally an ingestible device containing tacrolimus at 1 mg in 0.8 mL per ingestible device. Animals in Group 4 received intra-cecally an ingestible device containing tacrolimus at 2 mg in 0.8 mL per ingestible device. Animals in Group 5 received intra-cecally an ingestible device containing tacrolimus at 4 mg in 0.8 mL per ingestible device. To control for potential confounding effects of the surgery, all groups fast on Day −11 at least 24 hr before being subjected to anesthesia followed by surgical placements of a cecal port by a veterinary surgeon at Day −10. All animals were fasted for at least 12 hr prior to dosing on Day 1. Animals were dosed via either intra-cecal dosing (IC) or oral dosing (PO) at Day 1 (between 6-8 p.m.). All animals resumed feeding at approximately 4 hours after dose (11-12 p.m. after dosing).
Approximately 200-400 mg of rectal content were collected, if available, with a fecal swab (Copan Diagnostics Nylon Flocked Dry Swabs, 502CS01). The fecal swab was pre-weighed and weighed after collection in the collection tube (Sterile Tube and Cap No Media, PFPM913S), and the sample weight was recorded. The fecal swab was broken via the breakpoint, and was stored in the collection tube, and immediately frozen at −70° C. […] Immediately following euthanasia, tissue was collected.
Group 2 animals were administered a single oral dose of tacrolimus at 4 mg/0.8 mL (0.08-mg/kg) (in the vehicle solution) on Day 1. Plasma, rectal content sample, tissue collection, GI content collection and related procedures/storage/shipments was the same as those employed in Group 1.
Group 3 animals were administered a single intra-cecal ingestible device containing tacrolimus at 1-mg/0.8 mL (0.02 mg/kg) (in the vehicle solution) on Day 1 by a veterinary surgeon. Plasma, rectal content sample, tissue collection, GI content collection and related procedures/storage/shipments was the same as those employed in Group 1. All samples were analyzed for tacrolimus.
Group 4 animals were administered a single intra-cecal ingestible device of tacrolimus at 2 mg/0.8 mL (0.04 mg/kg) (in sterile vehicle solution) on Day 1 by a veterinary surgeon.
Group 5 animals are administered a single intra-cecal ingestible device containing tacrolimus at 4 mg/0.8 mL (0.08 mg/kg) (in the vehicle solution) on Day 1 by a veterinary surgeon. Plasma, rectal content sample, tissue collection, GI content collection and related procedures/storage/shipments were the same as those employed in Group 1. All samples were analyzed for tacrolimus.

[4] = system: IL-6, GM-CSF, IL-15, IL-2, IL-12, IL-13, TNF-α, INF-γ
[5] = female, Yorkshire-Cross, pig, in vivo, 0.04 mg/kg

C=CC[C@@H]1/C=C(\C)C[C@H](C)C[C@H](OC)[C@H]2O[C@@](O)(C(=O)C(=O)N3CCCC[C@H]3C(=O)O[C@H](/C(C)=C/[C@@H]3CC[C@@H](O)[C@H](OC)C3)[C@H](C)[C@@H](O)CC1=O)[C@H](C)C[C@@H]2OC [tacrolimus]
tissue (spiral and transverse colon) and luminal content (spiral, transverse, and distal colon) concentrations ([1]; IC capsule high and moderate dose vs PO): Significantly higher | mean concentration in cecum tissue and proximate colon tissue ([1]; intra-cecal vs oral, FIG. 76): higher | mean concentration in spiral colon lumen, transverse colon lumen and distal colon lumen [2]: statistically higher | mean concentration in spiral colon tissue and transverse colon tissue [2]: statistically higher | Cmax ([3]; PO, 0.09 mg/kg): 3.531 ± 3.84 ng/mL | concentration at 12 h ([3]; female, Yorkshire-Cross, pig, in vivo, 0.02 mg/kg): 0.746 ± 0.038 ng/mL | Tmax [3, 5]: 1 h | concentration at 12 h [3, 5]: 1.96 ± 0.491 ng/mL | concentration at 12 h ([3]; female, Yorkshire-Cross, pig, in vivo, 0.09 mg/kg): 4.35 ± 0.516 ng/mL

C[C@@H]1CCN(C(=O)CC#N)C[C@@H]1N(C)c1ncnc2[nH]ccc12 [tofacitinib citrate]
GM-CSF levels in plasma or colon tissue ([4]; IC vs PO treatment groups): nor was there a significant difference | IL-6 expression in plasma ([4]; PO or IC, 1 h and 3 h post-treatment): inhibition | inhibition of IL-6 expression in colon tissue ([4]; all IC treated groups and high dose PO group (45 mg/kg), FIG. 112B): sustained through 24 h post-dose | IL-6 inhibition in colon tissue ([4]; low dose PO group (15 mg/kg), by 12 h post-dose): Recovery from IL-6 inhibition
